According to PMC10394814, “Discovery and evaluation of active compounds from Xuanfei Baidu formula against COVID-19 via SARS-CoV-2 M^pro” (Chinese Medicine, 2023):

Key:
[1] = test system: Omicron BA.2.3 variant; test: Antiviral activity assay (CPE) in Vero E6 cells, Omicron BA.2.3; format: cell-based, SARS-CoV-2
[2] = test system: Omicron BA.1.1 variant; test: Antiviral activity assay (CPE) in Vero E6 cells, Omicron BA.1.1; format: cell-based, SARS-CoV-2

Question: How did the EC50 [1] turn out when `Cn1cnc(Cn2c(=O)[nH]/c(=N\c3cc4cn(C)nc4cc3Cl)n(Cc3cc(F)c(F)cc3F)c2=O)n1` [S-217622, reference compound] was run?
Answer: 235 nM

Question: And the EC50 [2]?
Answer: 120 nM
